Test results taken from US6515010B1 (SmithKline Beecham Corporation, priority 1999, dated 2003).
Converted amounts (≈) assume the structure as drawn.

Experiments:
[1] = pKa of carvedilol free base; assay type: physicochemical
physchem [2] = details: 25 °C, water, thermodynamic from solid
physchem [3] = assay: physchem
[4] = Aqueous solubility at 25° C. of carvedilol and its salt forms; details: water

Compound	pKa [1]	solubility at 1 hr (physchem [2])	solubility at 24 hr (physchem [2])	solubility (physchem [3]; pH 4, aqueous buffer)	solubility (physchem [3]; pH 9, aqueous buffer)	aqueous solubility (in words) [4]	Aqueous Solubility ([4]; time 0.5 hr)	Aqueous Solubility ([4]; time 1 hr)	Aqueous Solubility ([4]; time 4 hr)	Aqueous Solubility ([4]; time 70 hr)
COc1ccccc1OCCNCC(O)COc1cccc2[nH]c3ccccc3c12 (stereo not shown) [Carvedilol]	7.6	9.8 µg/mL (≈ 24.1 µM)	11.6 µg/mL (≈ 28.5 µM)	~200 µg/mL (≈ 492 µM)	< 1 µg/mL	–	–	–	–	–
Hydrochloride	–	–	–	–	–	poorly soluble in water	1650 µg/mL	1630 µg/mL	1370 µg/mL	1060 µg/mL
